Results taken from article PMC9294993 (ACS chemical biology, 2022).

Biological target: KfoC (Escherichia coli, UniProt Q8L0V4)
Experiment: preparative synthesis, HPLC
Format: biochemical
Settings: acceptor elongated to CS 7-mer

KfoC, sequence (Q8L0V4 whole entry): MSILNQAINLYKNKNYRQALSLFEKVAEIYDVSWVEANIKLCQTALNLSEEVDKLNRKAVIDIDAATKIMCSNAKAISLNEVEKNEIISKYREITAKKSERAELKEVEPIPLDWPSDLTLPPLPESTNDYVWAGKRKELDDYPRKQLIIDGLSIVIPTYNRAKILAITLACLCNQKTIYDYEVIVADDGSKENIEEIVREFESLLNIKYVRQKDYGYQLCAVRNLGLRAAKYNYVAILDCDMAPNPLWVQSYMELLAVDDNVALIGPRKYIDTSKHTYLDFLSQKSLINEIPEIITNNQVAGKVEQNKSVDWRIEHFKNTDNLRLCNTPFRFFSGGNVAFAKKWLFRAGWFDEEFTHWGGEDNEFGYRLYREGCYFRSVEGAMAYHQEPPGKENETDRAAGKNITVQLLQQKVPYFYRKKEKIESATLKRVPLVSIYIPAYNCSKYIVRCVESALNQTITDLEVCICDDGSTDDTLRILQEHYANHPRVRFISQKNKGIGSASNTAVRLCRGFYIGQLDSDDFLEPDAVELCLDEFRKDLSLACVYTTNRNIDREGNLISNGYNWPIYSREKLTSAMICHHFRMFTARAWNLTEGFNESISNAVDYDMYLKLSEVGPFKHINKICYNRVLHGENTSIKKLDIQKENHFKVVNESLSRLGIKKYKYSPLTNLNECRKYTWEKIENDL

O=C(O)[C@H]1O[C@@H](Oc2ccc([N+](=O)[O-])cc2)[C@H](O)[C@@H](O)[C@@H]1O [4-nitrophenyl-β-D-glucuronide]
preparative synthesis, HPLC: GlcA-pNP was first elongated to heptasaccharide CS 7-mer by KfoC
